In US7122214B2, “Drynaria extractions for treating osteoporosis and their extraction process” (priority 2000, dated 2006):

Columns and labels:
[1] = test system: Primary Osteoporosis; test: Clinical test of RDE on primary osteoporosis: ultrasonic bone density of mid-portion of tibia; type: in vivo, human; conditions: for ultrasonic bone density, Age matched (difference value) / ultrasonic bone density, Young adult (difference value): RDE 180 mg po tid (n=16), α-D3 0.5 μg po bid (n=15)
Experimental: (§1) The drugs with the following dosages and contents are used unless additional explanations.
(§2) Extracts in this present invention: capsules of preparation example 1, each capsule contains 0.18 g of effective component. Positive control medicine: α-D3, (synthesized by TEVA PHARMACEUTICALS, Israel, prepared by Sino-US Kunming BARKER NORTON PHARMACEUTICAL CO., LTD), each capsule contains 0.5 μg of effective component)
(§3) Diagnostic criteria: Comprehensive Diagnostic Grades for Primary Osteoporosis, according to the diagnostic criteria established by Specialized Committee of Osteoporosis of Chinese Association of Geriatrics. (cf. Gu-zhi-shu-song-zheng [M], p169–171, LIU Zhonghou eds. Chemical Industrial Press, Guangzhou, 1992)
(§4) According to the diagnostic criteria mentioned above, 70 cases of osteoporosis are randomly divided into treatment group with RDE and control group with α-D3. RDE is administrated 180 mg, per os, tid, for 6 months-2 period of treatment. And α-D3 is administrated 0.5 μg, per os, bid, for 6 months too.
(§5) Bone density of lumbar (L2–L4) and top-femur (collum femoris, trigonal area of femur, trochanteric of femur) is checked respectively by Double-Energy X-ray Bone Density Meter (LUNAR DPX-L DEXA bone densitometer,US). The unit is g/cm^2. And an Ultrasonic Bone Densitometer (model 2000-SYS-220, METRA Co., Israel) is employed to check the bone density of mid-portion of tibia.

[2] = test system: Ovariectomized (OVX) rats; test: Bone biomechanics (three point bending of left thighbone) in Ovariectomized (OVX) rats; type: in vivo, Wistar rats
Experimental: Observe the effect of RDE in this invention on both Tretinoin-induced and Ovariectomized (OVX) osteoporosis model in rats. […] RDE was dissolved in distilled water to a concentration of 0.47 mg/ml before administration. And administration was conducted via gastric tube. Tretinoin is manufactured by Chongqing Huabang Pharmaceuticals, Ltd. and was suspended to the concentration of 1.5% with distilled water. Control drug α-D3 was manufactured by TEVA PHARMACEUTICALS, Israel, which is solved in distilled water to the concentration of 0.03 μg/ml before using and administrated orally via gastric tube. Tretinoin-induced osteoporosis rats: sixty female […]-old, mean weight 234.85±15.32 g. Ovariectomized rats: sixty female Wistar rats, 12-week-old, mean weight 183.46±12.45 g. All the animals are obtained from the Experimental Animal Center of Chinese Military Medical Academy. Bone Biomechanics Rheometer was manufactured by Stevens Company, Great Britain (model QTS-25). X ray Bone-density-meter was manufactured by Norland Company, USA (model XR-26). The others are all obtained from market. 4. Dose Selections and Groups: • (1) Tretinoin-induced group: Sixty rats are randomly allocated to six groups (10 rats per group). Blank group: control animals received PSS/d (physiological saline solution) alone. Model group: Tretinoin is given orally 70 mg/kg/d; α-D3 group: both tretinoin and α-D3 are given orally 70 mg/kg/d and 0.002 μg/kg/d respectively; RDE low-dose group: both tretinoin and RDE are given orally 70 mg/kg/d and 54 mg/kg/d respectively; RDE medium-dose group: tretinoin 70 mg/kg/d and RDE 108 mg/kg/d; RDE high-dose group: tretinoin 70 mg/kg/d and RDE 216 mg/kg/d. • (2) Ovariectomized (OVX) rats group: Sixty rats are randomly allocated to six groups (10 rats per group). Blank group is the normal rats. All the other groups are removed amphi-ovaries. Model group received PSS only; α-D3 group: α-D3 is administrated orally 0.002 μg/kg/d; And RDE is administrated orally in the dose of 54, 108, 216 mg/kg/day to OVX rats respectively, corresponding to RDE groups of low-dose, medium-dose and high-dose. The dose administered to each animal is calculated from the individual body weight recorded at the end of each week. OVX rats groups: Both blank and model groups are given the same volume of distilled water orally, All the other groups commenced treatment according to the way mentioned above for 12 weeks after which animals are sacrificed and investigation of Bone Density and Bone-biomechanics are performed. 7. Measurements • 7.1. […] Bone biomechanics measurements: three point bending tests of left thighbone of each animal are performed; load-deformation curve is recorded to measure the biomechanics index. Experimental parameters: span 20 mm, loading velocity 10 mm/min. Bone structural mechanics parameters: breaking load, elastic load, maximum radius, elastic radius, maximum energy absorption; bone material mechanics parameters: firstly calculated the Femoral Section Inertial Moment, then computed the maximum strain, elastic strain, maximum stress, elastic stress and elastic modulus according to the formulae. [Results]

[3] = test system: Tretinoin-induced osteoporosis in rats; test: Bone biomechanics (three point bending of left thighbone) in Tretinoin-induced osteoporosis rats; type: in vivo, Wistar rats
Experimental: (§6) Observe the effect of RDE in this invention on both Tretinoin-induced and Ovariectomized (OVX) osteoporosis model in rats.
(§7) RDE was produced according to Example 1 (Per gram extract is equivalent to 66.67 g crude drugs). RDE was dissolved in distilled water to a concentration of 0.47 mg/ml before administration. And administration was conducted via gastric tube. Tretinoin is manufactured by Chongqing Huabang Pharmaceuticals, Ltd. and was suspended to the concentration of 1.5% with distilled water. Control drug α-D3 was manufactured by TEVA PHARMACEUTICALS, Israel, which is solved in distilled water to the concentration of 0.03 μg/ml before using and administrated orally via gastric tube.
(§8) Tretinoin-induced osteoporosis rats: sixty female W istar rats, 16-week-old, mean weight 234.85±15.32 g. Ovariectomized rats: sixty female Wistar rats, 12-week-old, mean weight 183.46±12.45 g. All the animals are obtained from the Experimental Animal Center of Chinese Military Medical Academy.
(§9) Bone Biomechanics Rheometer was manufactured by Stevens Company, Great Britain (model QTS-25). X ray Bone-density-meter was manufactured by Norland Company, USA (model XR-26). The others are all obtained from market.
4. Dose Selections and Groups: • (1) Tretinoin-induced group: Sixty rats are randomly allocated to six groups (10 rats per group). Blank group: control animals received PSS/d (physiological saline solution) alone. Model group: Tretinoin is given orally 70 mg/kg/d; α-D3 group: both tretinoin and α-D3 are given orally 70 mg/kg/d and 0.002 μg/kg/d respectively; RDE low-dose group: both tretinoin and RDE are given orally 70 mg/kg/d and 54 mg/kg/d respectively; RDE medium-dose group: tretinoin 70 mg/kg/d and RDE 108 mg/kg/d; RDE high-dose group: tretinoin 70 mg/kg/d and RDE 216 mg/kg/d. • (2) Ovariectomized (OVX) rats group: Sixty rats are randomly allocated to six groups (10 rats per group). Blank group is the normal rats. All the other groups are removed amphi-ovaries. Model group received PSS only; α-D3 group: α-D3 is administrated orally 0.002 μg/kg/d; And RDE is administrated orally in the dose of 54, 108, 216 mg/kg/day to OVX rats respectively, corresponding to RDE groups of low-dose, medium-dose and high-dose.
The dose administered to each animal is calculated from the individual body weight recorded at the end of each week.
Tretinoin-induced osteoporosis groups: Blank group received PSS during the course of experiment. The other groups commenced treatment on the same day, designated study Day 1, and once-daily tretinoin orally given for 14 days, after which they stopped administrating tretinoin. Both blank and model groups are given PSS in Day 15, and α-D3 group is given α-D3, RDE groups are given the corresponding dose of RDE orally for 14 days. The final dose is given in the Day 28 before sacrificed. Investigation of Bone Density and Bone-biomechanics are performed in the Day 29.
(§10) 7. Measurements • 7.1. Bone density measurements are performed on No.2–4 lumbar spines and right thighbone of each animal. • 7.2. Bone biomechanics measurements: three point bending tests of left thighbone of each animal are performed; load-deformation curve is recorded to measure the biomechanics index. Experimental parameters: span 20 mm, loading velocity 10 mm/min. Bone structural mechanics parameters: breaking load, elastic load, maximum radius, elastic radius, maximum energy absorption; bone material mechanics parameters: firstly calculated the Femoral Section Inertial Moment, then computed the maximum strain, elastic strain, maximum stress, elastic stress and elastic modulus according to the formulae. [Results]

[4] = test system: Ovariectomized (OVX) rats; test: Bone density in Ovariectomized (OVX) osteoporosis model in rats; type: in vivo, Wistar rats
Experimental: as §6, §7, §8, §9
(§11) 4. Dose Selections and Groups: • (1) Tretinoin-induced group: Sixty rats are randomly allocated to six groups (10 rats per group). Blank group: control animals received PSS/d (physiological saline solution) alone. […]
(§12) The dose administered to each animal is calculated from the individual body weight recorded at the end of each week. […]
as §10, with “Measurements • 7.1. Bone density measurements are performed on No.2–4 lumbar spines and right thighbone of each animal. • 7.2.” left out, “Experimental parameters: span 20 mm, loading velocity 10 mm/min.” left out, “[Results]” left out

[5] = test system: Tretinoin-induced osteoporosis in rats; test: Bone density in Tretinoin-induced osteoporosis model in rats; type: in vivo, Wistar rats
Experimental: as §6, §7, §8, §9, §11, §12
as §10, with “Measurements • 7.1. Bone density measurements are performed on No.2–4 lumbar spines and right thighbone of each animal. • 7.2.” left out, “Experimental parameters: span 20 mm, loading velocity 10 mm/min.” left out, “[Results]” left out

[6] = test system: Primary Osteoporosis; test: Clinical test of RDE on primary osteoporosis: bone density by double-energy X-ray bone density meter; type: in vivo, human; conditions: for Bone density of collum femoris / Bone density of trigonal area of femur / Bone density of trochanteric of femur / Bone density of lumber (L2–L4): RDE 180 mg po tid, α-D3 0.5 μg po bid; for Bone density of lumber (L2–L4): n=17 per group
Experimental: as §1, §2, §3, §4, §5

[7] = Inventors' investigation of activity of improving osteoporosis (no method given); conditions: no data or method given
[8] = OVX rats, α-D3 0.002 μg/kg/d oral 12 weeks
[9] = α-D3 0.002 μg/kg/d oral 14 days after tretinoin 70 mg/kg/d 14 days

SMILES: C=C1/C(=C\C=C2/CCC[C@]3(C)[C@@H]([C@H](C)CCCC(C)C)CC[C@@H]23)C[C@@H](O)C[C@@H]1O [α-D3]
- ultrasonic bone density, Age matched (difference value) ([1]; Before-treatment (baseline)): −1.433 ± 0.788 g/cm^2
- ultrasonic bone density, Young adult (difference value) ([1]; Before-treatment (baseline)): −1.993 ± 0.872 g/cm^2
- Speed sound, change self-compared within group ([1]; RDE P<0.01, α-D3 P<0.05): increase significantly
- ultrasonic bone density, Age matched (difference value) ([1]; after 3 months treatment): −1.386 ± 0.908 g/cm^2
- ultrasonic bone density, Young adult (difference value) ([1]; after 3 months treatment): −1.953 ± 1.181 g/cm^2
- ultrasonic bone density, Age matched (difference value) ([1]; after 6 months treatment): −0.987 ± 1.068 g/cm^2
- ultrasonic bone density, Young adult (difference value) ([1]; after 6 months treatment): −0.593 ± 1.209 g/cm^2
- all the bone structural mechanics indicators compared with model group ([2]; OVX rats (Table 12)): increased significantly
- Area of bone cortes [2, 8]: 4.13 ± 0.99
- Elastic load [2, 8]: 88.6 ± 12.7 N
- Elastic mould [2, 8]: 7992 ± 1132
- Elastic strain (material) [2, 8]: 0.03 ± 0.010
- Elastic stress [2, 8]: 147.2 ± 11.00 N/mm^2
- Maximum energy observation [2, 8]: 520.48 ± 108.44 N-mm^2
- Maximum load [2, 8]: 102.1 ± 2.90 N
- Maximum strain (material) [2, 8]: 0.03 ± 0.006
- Maximum strain (structural) [2, 8]: 0.96 ± 0.10 mm
- Maximum stress [2, 8]: 221.5 ± 46.50 N/mm^2
- Rigidity coefficient [2, 8]: 27508 ± 8073
- all the bone structural mechanics indicators compared with model group ([3]; Tretinoin-induced osteoporosis rats (Table 11)): increased significantly
- Elastic load [3, 9]: 100.40 ± 7.00 N
- Elastic strain (material) [3, 9]: 0.03 ± 0.01
- Elastic strain (structural) [3, 9]: 1.01 ± 0.14 mm
- Elastic stress [3, 9]: 177.6 ± 51.3 N/mm^2
- Maximum energy observation [3, 9]: 635.73 ± 114.46 N-mm
- Maximum load [3, 9]: 103.20 ± 3.40 N
- Maximum strain (material) [3, 9]: 0.03 ± 0.009
- Maximum strain (structural) [3, 9]: 0.98 ± 0.14 mm
- Maximum stress [3, 9]: 167.2 ± 44.5 N/mm^2
- Rigidity coefficient [3, 9]: 30561 ± 9194 N/mm^2
- femoral bone density compared with model group ([4]; OVX rats (Table 10)): increased obviously
- Bone density Lumber spine [4, 8]: 0.13 ± 0.009 g/cm^2
- Bone density thighbone [4, 8]: 0.13 ± 0.009 g/cm^2
- femoral bone density compared with model group ([5]; Tretinoin-induced osteoporosis rats (Table 9)): increased obviously
- Bone density Lumber spine [5, 9]: 0.135 ± 0.005 g/cm^2
- Bone density thighbone [5, 9]: 0.137 ± 0.004 g/cm^2
- Bone density of collum femoris ([6]; Before-treatment (baseline)): 0.748 ± 0.095 g/cm^2
- Bone density of trigonal area of femur ([6]; Before-treatment (baseline)): 0.582 ± 0.125 g/cm^2
- Bone density of trochanteric of femur ([6]; Before-treatment (baseline)): 0.606 ± 0.109 g/cm^2
- Bone density of lumber (L2–L4) ([6]; Before-treatment (baseline)): 0.958 ± 0.180 g/cm^2
- Change of bone density of collum femoris after vs before treatment ([6]; after 3 and 6 months, within group): no significant difference
- Bone density of collum femoris ([6]; after 3 months treatment): 0.744 ± 0.100 g/cm^2
- Bone density of trigonal area of femur ([6]; after 3 months treatment): 0.591 ± 0.124 g/cm^2
- Bone density of trochanteric of femur ([6]; after 3 months treatment): 0.616 ± 0.099 g/cm^2
- Bone density of lumber (L2–L4) ([6]; after 3 months treatment): 0.954 ± 0.179 g/cm^2
- Change of bone density of lumber (L2–L4) after vs before treatment ([6]; after 3 or 6 months treatment, within group): no improvement
- Bone density of collum femoris ([6]; after 6 months treatment): 0.744 ± 0.093 g/cm^2
- Bone density of trigonal area of femur ([6]; after 6 months treatment): 0.581 ± 0.134 g/cm^2
- Bone density of trochanteric of femur ([6]; after 6 months treatment): 0.616 ± 0.094 g/cm^2
- Bone density of lumber (L2–L4) ([6]; after 6 months treatment): 0.958 ± 0.145 g/cm^2

SMILES: C[C@@H]1O[C@@H](O[C@H]2[C@H](Oc3cc(O)c4c(c3)O[C@H](c3ccc(O)cc3)CC4=O)O[C@H](CO)[C@@H](O)[C@@H]2O)[C@H](O)[C@H](O)[C@H]1O [naringin]
- activity of improving osteoporosis [7]: has the activity of improving osteoporosis
- efficiency in improving osteoporosis relative to the active extracts [7]: lower than the active extracts
